Test results published in US20240139185A1, “COMPOUNDS THAT PARTICIPATE IN COOPERATIVE BINDING AND USES THEREOF” (Revolution Medicines, Inc., priority 2018, published 2024).

Tests used:
pERK in H358 cells = assay: pERK inhibition in H358 cells; assay type: cell-based, human; conditions: 4 hours treatment, read-out: Cellular pERK inhibition
In short: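 Human lung cancer H358 cells in RPMI/10% FBS were exposed to compound or DMSO for 4 h. Fixed and permeabilized cells were stained overnight at 4 C with anti-phospho-ERK1/2 (Thr202/Tyr204). Near-infrared imaging read the pERK signal at 800 nm, with DRAQ5 at 700 nm.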

cyclophilin A (CYPA) = cyclophilin A (CYPA) (Homo sapiens, UniProt P62937); assay: CYPA-compound binary complex formation by SPR; conditions: read-out: CYPA Binding Affinity
In short: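 Steady-state fit of SPR responses gave binding affinity. Analyte series: 50 μM downward, 2-fold, 10 points, running buffer HBS-P+ (0.05% Tween20, pH7.4, 2% DMSO), 60 s on/60 s off. Surface: biotinylated CypA-Avi captured at 4 μg/ml against a reference cell, regenerated with NaOH/guanidine.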

[1] = biological target: T1, BRAF-GTP-KRAS-G12C complex (Homo sapiens, UniProt P01116+P62937, G12C); assay: KRAS-BRAF complex disruption through competition with CYPA-compound by TR-FRET; conditions: biochemical BRAF-KRAS G12C-GTP disruption assay EC50, with CYPA
T1 construct: 50 nM of His6-KRas G12C-GTP (1-169); 500 nM of tagless CypA (1-165)
In short: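 Compound-driven loss of KRAS–BRAF RBD TR-FRET signal, Eu-anti-His/APC-anti-GST pair (10/50 nM, 1.5 h), following a 3 h room-temperature preincubation of 50 nM His6-KRAS G12C-GTP and 500 nM CypA in 25 mM Hepes pH 7.3 buffer. EC50 by 4-parameter fit. Variants used wild-type KRAS in place of G12C or no CypA.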

SMILES: CC(C)[C@@H](C(=O)N[C@H]1Cc2cc(O)cc(c2)-c2ccc3c(C(C#N)C4CC4)cn(c3c2)C[C@H](C)COC(=O)[C@@H]2CCCN(N2)C1=O)N(C)C(=O)C1CN(C(=O)CCl)C1 (stereo partly drawn) [Compound 78]
- IC50 (pERK in H358 cells): 1 to 10 µM
- Kd (cyclophilin A (CYPA)): 5 to 15 µM
- EC50 [1]: ≤ 0.5 µM

SMILES: CC(C)[C@@H](C(=O)N[C@H]1Cc2cc(O)cc(c2)-c2ccc3c(C4(C#N)CCC4)cn(c3c2)C[C@H](C)COC(=O)[C@@H]2CCCN(N2)C1=O)N(C)C(=O)C1CN(C(=O)CCl)C1 [Compound 81]
- IC50 (pERK in H358 cells): ≤ 1 µM
- Kd (cyclophilin A (CYPA)): 5 to 15 µM
- EC50 [1]: ≤ 0.5 µM

SMILES: CC(C)[C@@H](C(=O)N[C@H]1Cc2cc(O)cc(c2)-c2ccc3c(C(C)(C)C#N)c(C#N)n(c3c2)C[C@H](C)COC(=O)[C@@H]2CCCN(N2)C1=O)N(C)C(=O)C1CN(C(=O)CCl)C1 [Compound 85]
- IC50 (pERK in H358 cells): ≤ 1 µM
- Kd (cyclophilin A (CYPA)): ≤ 5 µM
- EC50 [1]: ≤ 0.5 µM

SMILES: CCc1c(-c2ccccc2OC)n2c3cc(ccc13)-c1cc(O)cc(c1)C[C@H](NC(=O)[C@H](C(C)C)N(C)C(=O)C1CN(C(=O)CCl)C1)C(=O)N1CCC[C@H](N1)C(=O)OC[C@@H](C)C2 [Compound 86]
- IC50 (pERK in H358 cells): ≤ 1 µM
- Kd (cyclophilin A (CYPA)): > 15 µM
- EC50 [1]: ≤ 0.5 µM

SMILES: C=CC(=O)N1CCC(C(=O)N(C)C(C(=O)NC2Cc3cc(O)cc(c3)-c3ccc4c(C(C)(C)C#N)cn(c4c3)CC(C)(C)COC(=O)C3CCCN(N3)C2=O)C(C)C)C1 (stereo not drawn) [Compound 89]
- IC50 (pERK in H358 cells): 1 to 10 µM
- Kd (cyclophilin A (CYPA)): 5 to 15 µM
- EC50 [1]: 0.5 to 5 µM

SMILES: C=CC(=O)N1CCC(C(=O)N(C)C(C(=O)NC2Cc3cc(O)cc(c3)-c3ccc4cc(-c5ccccc5COC)n(c4c3)CC(C)(C)COC(=O)C3CCCN(N3)C2=O)C(C)C)C1 (stereo not drawn) [Compound 90]
- IC50 (pERK in H358 cells): ≤ 1 µM
- Kd (cyclophilin A (CYPA)): 5 to 15 µM
- EC50 [1]: 0.5 to 5 µM

SMILES: C#CCOCc1cc2ccc3cc2n1C[C@H](C)COC(=O)[C@@H]1CCCN(N1)C(=O)[C@@H](NC(=O)[C@H](C(C)C)N(C)C(=O)C1CN(C(=O)CCl)C1)Cc1cc(O)cc-3c1 [Compound 91]
- IC50 (pERK in H358 cells): 1 to 10 µM
- Kd (cyclophilin A (CYPA)): 5 to 15 µM
- EC50 [1]: 0.5 to 5 µM

SMILES: C=CC(=O)N1CCN([C@H](C(=O)N[C@H]2Cc3cc(O)cc(c3)-c3ccc4c(C)cn(c4c3)CC(C)(C)COC(=O)[C@@H]3CCCN(N3)C2=O)C(C)C)C1=O [Compound 97]
- IC50 (pERK in H358 cells): > 10 µM
- Kd (cyclophilin A (CYPA)): > 15 µM
- EC50 [1]: ≤ 0.5 µM

SMILES: CCc1cn2c3cc(ccc13)-c1cc(O)cc(c1)CC(NC(=O)C(C(C)C)N(C)C(=O)C1CN(C(=O)CCl)C1)C(=O)N1CCCC(N1)C(=O)OCC(C)(C)C2 (stereo not drawn) [Compound 99]
- IC50 (pERK in H358 cells): ≤ 1 µM
- Kd (cyclophilin A (CYPA)): > 15 µM
- EC50 [1]: ≤ 0.5 µM

SMILES: CC(C)[C@@H](C(=O)N[C@H]1Cc2cc(O)cc(c2)-c2ccc3c(S(C)(=O)=O)cn(c3c2)CCCOC(=O)[C@@H]2CCCN(N2)C1=O)N(C)C(=O)C1CN(C(=O)CCl)C1 [Compound 102]
- IC50 (pERK in H358 cells): > 10 µM
- Kd (cyclophilin A (CYPA)): 5 to 15 µM
- EC50 [1]: ≤ 0.5 µM

SMILES: Cc1cc2ccc3cc2n1CC(C)(C)COC(=O)[C@@H]1CCCN(N1)C(=O)[C@@H](NC(=O)[C@H](C(C)C)N(C)C(=O)C1CN(C(=O)CCl)C1)Cc1cc(O)cc-3c1 [Compound 103]
- IC50 (pERK in H358 cells): 1 to 10 µM
- Kd (cyclophilin A (CYPA)): > 15 µM
- EC50 [1]: ≤ 0.5 µM

SMILES: CC(C)[C@@H](C(=O)N[C@H]1Cc2cc(O)cc(c2)-c2ccc3c(Cl)cn(c3c2)CC(C)(C)COC(=O)[C@@H]2CCCN(N2)C1=O)N(C)C(=O)C1CN(C(=O)CCl)C1 [Compound 104]
- IC50 (pERK in H358 cells): ≤ 1 µM
- Kd (cyclophilin A (CYPA)): > 15 µM
- EC50 [1]: ≤ 0.5 µM

SMILES: Cc1c(C#N)c2ccc3cc2n1CC(C)(C)COC(=O)[C@@H]1CCCN(N1)C(=O)[C@@H](NC(=O)[C@H](C(C)C)N(C)C(=O)C1CN(C(=O)CCl)C1)Cc1cc(O)cc-3c1 [Compound 106]
- IC50 (pERK in H358 cells): 1 to 10 µM
- Kd (cyclophilin A (CYPA)): 5 to 15 µM
- EC50 [1]: ≤ 0.5 µM

SMILES: CNC(=O)c1cn2c3cc(ccc13)-c1cc(O)cc(c1)C[C@H](NC(=O)[C@H](C(C)C)N(C)C(=O)C1CN(C(=O)CCl)C1)C(=O)N1CCC[C@H](N1)C(=O)OCC(C)(C)C2 [Compound 108]
- IC50 (pERK in H358 cells): > 10 µM
- Kd (cyclophilin A (CYPA)): 5 to 15 µM
- EC50 [1]: ≤ 0.5 µM

SMILES: CC(C)C(C(=O)NC1Cc2cc(O)cc(c2)-c2ccc3c(C(=O)N(C)C)cn(c3c2)CC(C)(C)COC(=O)C2CCCN(N2)C1=O)N(C)C(=O)C1CN(C(=O)CCl)C1 (stereo not drawn) [Compound 109]
- IC50 (pERK in H358 cells): > 10 µM
- Kd (cyclophilin A (CYPA)): > 15 µM
- EC50 [1]: ≤ 0.5 µM

SMILES: CNC(=O)c1cc2ccc3cc2n1CC(C)COC(=O)C1CCCN(N1)C(=O)C(NC(=O)C(C(C)C)N(C)C(=O)C1CN(C(=O)CCl)C1)Cc1cc(O)cc-3c1 (stereo not drawn) [Compound 115]
- IC50 (pERK in H358 cells): > 10 µM
- Kd (cyclophilin A (CYPA)): ≤ 5 µM
- EC50 [1]: ≤ 0.5 µM

SMILES: CC(C)[C@@H](C(=O)N[C@H]1Cc2cc(O)cc(c2)-c2ccc3c(C4CC4)cn(c3c2)C[C@H](C)COC(=O)[C@@H]2CCCN(N2)C1=O)N(C)C(=O)C1CN(C(=O)CCl)C1 [Compound 117]
- IC50 (pERK in H358 cells): ≤ 1 µM
- Kd (cyclophilin A (CYPA)): 5 to 15 µM
- EC50 [1]: ≤ 0.5 µM

SMILES: CC(C)[C@@H](C(=O)N[C@H]1Cc2cc(O)cc(c2)-c2ccc3c(C4CCC4)cn(c3c2)C[C@H](C)COC(=O)[C@@H]2CCCN(N2)C1=O)N(C)C(=O)C1CN(C(=O)CCl)C1 [Compound 118]
- IC50 (pERK in H358 cells): 1 to 10 µM
- Kd (cyclophilin A (CYPA)): > 15 µM
- EC50 [1]: ≤ 0.5 µM

SMILES: CC(C)[C@@H](C(=O)N[C@H]1Cc2cc(O)cc(c2)-c2ccc3ncn(c3c2)CC(C)(C)COC(=O)[C@@H]2CCCN(N2)C1=O)N(C)C(=O)C1CN(C(=O)CCl)C1 [Compound 139]
- IC50 (pERK in H358 cells): > 10 µM
- Kd (cyclophilin A (CYPA)): 5 to 15 µM
- EC50 [1]: ≤ 0.5 µM

SMILES: COCc1nc2ccc3cc2n1CC(C)(C)COC(=O)[C@@H]1CCCN(N1)C(=O)[C@@H](NC(=O)[C@H](C(C)C)N(C)C(=O)C1CN(C(=O)CCl)C1)Cc1cc(O)cc-3c1 [Compound 143]
- IC50 (pERK in H358 cells): > 10 µM
- Kd (cyclophilin A (CYPA)): 5 to 15 µM
- EC50 [1]: ≤ 0.5 µM

SMILES: Cc1nc2ccc3cc2n1C[C@H](C)COC(=O)[C@@H]1CCCN(N1)C(=O)[C@@H](NC(=O)[C@H](C(C)C)N(C)C(=O)C1CN(C(=O)CCl)C1)Cc1cc(O)cc-3c1 [Compound 147]
- IC50 (pERK in H358 cells): > 10 µM
- Kd (cyclophilin A (CYPA)): ≤ 5 µM
- EC50 [1]: ≤ 0.5 µM

SMILES: Cc1nc2ccc3cc2n1CC1(CC1)COC(=O)[C@@H]1CCCN(N1)C(=O)[C@@H](NC(=O)[C@H](C(C)C)N(C)C(=O)C1CN(C(=O)CCl)C1)Cc1cc(O)cc-3c1 [Compound 151]
- IC50 (pERK in H358 cells): > 10 µM
- Kd (cyclophilin A (CYPA)): 5 to 15 µM
- EC50 [1]: ≤ 0.5 µM

SMILES: C=CS(=O)(=O)N1CCN([C@H](C(=O)N[C@H]2Cc3cc(O)cc(c3)-c3ccc4nc(C)n(c4c3)CC(C)(C)COC(=O)[C@@H]3CCCN(N3)C2=O)C(C)C)C1=O [Compound 152]
- IC50 (pERK in H358 cells): 1 to 10 µM
- Kd (cyclophilin A (CYPA)): 5 to 15 µM
- EC50 [1]: ≤ 0.5 µM

SMILES: CC(C)[C@@H](C(=O)N[C@H]1Cc2cc(O)cc(c2)-c2cc3c(ccc(C#N)c3s2)OCCCOC(=O)[C@@H]2CCCN(N2)C1=O)N(C)C(=O)C1CN(C(=O)CCl)C1 [Compound 172]
- IC50 (pERK in H358 cells): > 10 µM
- Kd (cyclophilin A (CYPA)): 5 to 15 µM
- EC50 [1]: 0.5 to 5 µM

SMILES: CC(C)[C@@H](C(=O)N[C@H]1Cc2cc(O)cc(c2)-c2ccc3nnn(c3c2)CC(C)(C)COC(=O)[C@@H]2CCCN(N2)C1=O)N(C)C(=O)C1CN(C(=O)CCl)C1 [Compound 175]
- IC50 (pERK in H358 cells): > 10 µM
- Kd (cyclophilin A (CYPA)): 5 to 15 µM
- EC50 [1]: ≤ 0.5 µM

SMILES: CC(C)[C@@H](C(=O)N[C@H]1Cc2cc(O)cc(c2)-c2ccc3c(C#N)cn(c3n2)CC(C)(C)COC(=O)[C@@H]2CCCN(N2)C1=O)N(C)C(=O)C1CN(C(=O)CCl)C1 [Compound 176]
- IC50 (pERK in H358 cells): 1 to 10 µM
- Kd (cyclophilin A (CYPA)): 5 to 15 µM
- EC50 [1]: ≤ 0.5 µM

SMILES: CC(C)[C@@H](C(=O)N[C@H]1Cc2cc(O)cc(c2)-c2ccc3c(c2)N(CC(C)(C)COC(=O)[C@@H]2CCCN(N2)C1=O)C(=O)C3)N(C)C(=O)C1CN(C(=O)CCl)C1 [Compound 177]
- IC50 (pERK in H358 cells): 1 to 10 µM
- Kd (cyclophilin A (CYPA)): 5 to 15 µM
- EC50 [1]: ≤ 0.5 µM

SMILES: CC(C)[C@@H](C(=O)N[C@H]1Cc2cc(O)cc(c2)-c2cc3c(ccn3CC(C)(C)COC(=O)[C@@H]3CCCN(N3)C1=O)cn2)N(C)C(=O)C1CN(C(=O)CCl)C1 [Compound 178]
- IC50 (pERK in H358 cells): > 10 µM
- Kd (cyclophilin A (CYPA)): 5 to 15 µM
- EC50 [1]: 0.5 to 5 µM

SMILES: CC(C)[C@@H](C(=O)N[C@H]1Cc2cc(O)cc(c2)-c2ccc3c(C#N)ccc(c3c2)OCCCOC(=O)[C@@H]2CCCN(N2)C1=O)N(C)C(=O)C1CN(C(=O)CCl)C1 [Compound 185]
- IC50 (pERK in H358 cells): > 10 µM
- Kd (cyclophilin A (CYPA)): ≤ 5 µM
- EC50 [1]: 0.5 to 5 µM
